Source: patent US8388986B2, “Use of cationic surfactants in cosmetic preparations” (priority 2001, dated 2013)

Key:
Format in all cases: cell-based
[1] = tested on: Escherichia coli 0157H7; assay: minimum inhibitory concentration; conditions: Gram − Bacteria
[2] = tested on: Lactobacillus delbrueckii ssp lactis CECT 372; assay: minimum inhibitory concentration; conditions: Gram + Bacteria
[3] = tested on: Serratia marcenses CECT 274; assay: minimum inhibitory concentration; conditions: Gram − Bacteria
[4] = tested on: Penicillium funiculosum CECT 2914; assay: minimum inhibitory concentration; conditions: Fungi
[5] = tested on: Rhodotorula rubra CECT 1158; assay: minimum inhibitory concentration; conditions: Yeast
[6] = tested on: Penicillium chrysogenum CECT 2802; assay: minimum inhibitory concentration; conditions: Fungi
[7] = tested on: Pseudomonas aeruginosa ATCC 9027; assay: minimum inhibitory concentration; conditions: Gram − Bacteria
[8] = tested on: Enterobacter aerogenes CECT 689; assay: minimum inhibitory concentration; conditions: Gram − Bacteria
[9] = tested on: Clostridium perfringens ATCC 77454; conditions: Gram + Bacteria
[10] = tested on: Candida albicans ATCC 10231; assay: minimum inhibitory concentration; conditions: Yeast
[11] = tested on: Escherichia coli ATCC 8739; assay: minimum inhibitory concentration; conditions: Gram − Bacteria
[12] = tested on: Klebsiella pneumoniae var pneumoniae CECT 178; assay: minimum inhibitory concentration; conditions: Gram − Bacteria
[13] = tested on: Bacillus subtilis ATCC 6633; assay: minimum inhibitory concentration; conditions: Gram + Bacteria
[14] = tested on: Bacillus cereus var mycoide ATCC 11778; assay: minimum inhibitory concentration; conditions: Gram + Bacteria
[15] = tested on: Proteus mirabilis CECT 170; assay: minimum inhibitory concentration; conditions: Gram − Bacteria
[16] = tested on: Citrobacter freundii ATCC 22636; assay: minimum inhibitory concentration; conditions: Gram − Bacteria
[17] = tested on: Saccharomyces cerevisiae ATCC 9763; assay: minimum inhibitory concentration; conditions: Yeast
[18] = tested on: Aerobes; assay: preservative efficacy (Antimicrobial Effectiveness Testing USP 24th Edition) in cosmetic formulations; conditions: 0.20 g of LAE
Procedure: This assay consists of the contamination of the protecting formulations with an inoculum mixture of 10^8 cfu/mL concentration, for each of the microorganisms, and the determination of the number of viable cells in the time. This inoculum mixture is composed of the following microorganisms:
The cosmetic composition to be analysed is divided into sterile containers with 50 g of product for each flask. Each container is inoculated with 0.5 mL of inoculum (10^8 cfu/mL). The target concentration is 10^6 cfu/mL, approximately. All the containers are kept at a temperature between 20-25° C. and are protected from light.
The level of the microbial contamination is checked at 0 hours, 7 days, 14 days and 28 days. The number of colonies is evaluated by dilution in buffer peptone with the appropriate neutraliser agent of the preservative. The culture media used for counting the microorganisms are: Soya triptone (35-37° C., 48 hours) for the determination of bacteria; Sabouraud agar with chloramphenicol for fungi and yeast (25° C., 3-5 days).
According to Antimicrobial Effectiveness Testing USP 24th Edition, 1999 (pp. 1809-1811), an antimicrobial preservative is considered to be effective in topically used products made with aqueous bases or vehicles, non-sterile nasal products and emulsions, including those applied to mucous membranes, if: • Not less than 2.0 logarithm reduction from the initial calculated bacteria's count is reached at 14 days and no increase from the 14 days' count at 28 days is detected; and • No increase from the initial calculated count of yeast and moulds is observed.

[19] = tested on: Bordetella bronchiseptica ATCC 4617; assay: minimum inhibitory concentration; conditions: Gram − Bacteria
[20] = tested on: Listeria monocytogenes ATCC 7644; assay: minimum inhibitory concentration; conditions: Gram + Bacteria
[21] = tested on: Aspergillus niger ATCC 14604; assay: minimum inhibitory concentration; conditions: Fungi
[22] = tested on: Gliocadium virens ATCC 4645; assay: minimum inhibitory concentration; conditions: Fungi
[23] = tested on: Aureobasidium pullulans ATCC 9348; assay: minimum inhibitory concentration; conditions: Fungi
[24] = tested on: Alcaligenes faecalis ATCC 8750; assay: minimum inhibitory concentration; conditions: Gram − Bacteria

## CCCCCCCCCCCC(=O)N[C@@H](CCCN=C(N)N)C(=O)OCC.Cl [LAE, ethyl ester of the lauramide of the arginine monohydrochloride]
[1]
  M.I.C.: 20 ppm
[2]
  M.I.C.: 16 ppm
[3]
  M.I.C.: 32 ppm
[4]
  M.I.C.: 16 ppm
[5]
  M.I.C.: 16 ppm
[6]
  M.I.C.: 128 ppm
[7]
  M.I.C.: 64 ppm
[8]
  M.I.C.: 32 ppm
[9]
  M.I.C.: 16 ppm
[10]
  M.I.C.: 16 ppm
[11]
  M.I.C.: 32 ppm
[12]
  M.I.C.: 32 ppm
[13]
  M.I.C.: 16 ppm
[14]
  M.I.C.: 32 ppm
[15]
  M.I.C.: 32 ppm
[16]
  M.I.C.: 64 ppm
[17]
  M.I.C.: 32 ppm
[18]; Example 1, oil-in-water emulsion with non-ionic surfactant, 7 days
  viable count With LAE: 3.1 · 10^3 cfu/mL
[18]; Example 1, oil-in-water emulsion with non-ionic surfactant, 14 days
  viable count With LAE: 3.3 · 10^2 cfu/mL
[18]; Example 1, oil-in-water emulsion with non-ionic surfactant, Initial
  viable count With LAE: 1.1 · 10^6 cfu/mL
[18]; Example 2, oil-in-water emulsion with an ionic emulsifier, 7 days
  viable count With LAE: 1.6 · 10^4 cfu/mL
[18]; Example 2, oil-in-water emulsion with an ionic emulsifier, 14 days
  viable count With LAE: 6.5 · 10^2 cfu/mL
[18]; Example 2, oil-in-water emulsion with an ionic emulsifier, Initial
  viable count With LAE: 2.7 · 10^6 cfu/mL
[18]; Example 3, water in oil emulsion with non-ionic emulsifiers, 7 days
  viable count With LAE: 1.8 · 10^3 cfu/mL
[18]; Example 3, water in oil emulsion with non-ionic emulsifiers, 14 days
  viable count With LAE: <9.9 · 10^1 cfu/mL
[18]; Example 3, water in oil emulsion with non-ionic emulsifiers, Initial
  viable count With LAE: 6.2 · 10^6 cfu/mL
[18]; Example 4, aqueous solution with a surfactants' mixture (bath gels, disodium cocoamfoacetate), 7 days
  viable count With LAE: 5.8 · 10^3 cfu/mL
[18]; Example 4, aqueous solution with a surfactants' mixture (bath gels, disodium cocoamfoacetate), 14 days
  viable count With LAE: <9.9 · 10^1 cfu/mL
[18]; Example 4, aqueous solution with a surfactants' mixture (bath gels, disodium cocoamfoacetate), Initial
  viable count With LAE: 3.3 · 10^6 cfu/mL
[18]; Example 5, aqueous solution with a surfactants' mixture (bath gels, disodium lauryl sulfosuccinate), 7 days
  viable count With LAE: 4.8 · 10^2 cfu/mL
[18]; Example 5, aqueous solution with a surfactants' mixture (bath gels, disodium lauryl sulfosuccinate), 14 days
  viable count With LAE: 1.3 · 10^2 cfu/mL
[18]; Example 5, aqueous solution with a surfactants' mixture (bath gels, disodium lauryl sulfosuccinate), Initial
  viable count With LAE: 6.7 · 10^6 cfu/mL
[18]; Example 6, hydroalcoholic gel (after-shaving lotions), 7 days
  viable count With LAE: 6.9 · 10^3 cfu/mL
[18]; Example 6, hydroalcoholic gel (after-shaving lotions), 14 days
  viable count With LAE: <9.9 · 10^1 cfu/mL
[18]; Example 6, hydroalcoholic gel (after-shaving lotions), Initial
  viable count With LAE: 3.7 · 10^6 cfu/mL
[18]; Example 7, facial tonic, 7 days
  viable count With LAE: 3.6 · 10^3 cfu/mL
[18]; Example 7, facial tonic, 14 days
  viable count With LAE: 5.9 · 10^2 cfu/mL
[18]; Example 7, facial tonic, Initial
  viable count With LAE: 2.7 · 10^6 cfu/mL
[18]; Example 8, mask-up cleaner, 7 days
  viable count With LAE: 3.8 · 10^3 cfu/mL
[18]; Example 8, mask-up cleaner, 14 days
  viable count With LAE: 6.7 · 10^2 cfu/mL
[18]; Example 8, mask-up cleaner, Initial
  viable count With LAE: 4.5 · 10^6 cfu/mL
[18]; Example 9, fluid oil-in-water emulsion with non-ionic surfactants (body oil), 7 days
  viable count With LAE: 7.6 · 10^3 cfu/mL
[18]; Example 9, fluid oil-in-water emulsion with non-ionic surfactants (body oil), 14 days
  viable count With LAE: <9.9 · 10^1 cfu/mL
[18]; Example 9, fluid oil-in-water emulsion with non-ionic surfactants (body oil), Initial
  viable count With LAE: 4.5 · 10^6 cfu/mL
[18]; Example 10, toothpaste formulation, 7 days
  viable count With LAE: 3.3 · 10^3 cfu/mL
[18]; Example 10, toothpaste formulation, 14 days
  viable count With LAE: 8.0 · 10^2 cfu/mL
[18]; Example 10, toothpaste formulation, Initial
  viable count With LAE: 4.5 · 10^6 cfu/mL
[18]; Example 11, aqueous solution with surfactants (shampoos), 7 days
  viable count With LAE: 4.8 · 10^3 cfu/mL
[18]; Example 11, aqueous solution with surfactants (shampoos), 14 days
  viable count With LAE: 7.0 · 10^2 cfu/mL
[18]; Example 11, aqueous solution with surfactants (shampoos), Initial
  viable count With LAE: 3.3 · 10^6 cfu/mL
[18]; Example 12, oil-in-water emulsion with non-ionic surfactants (face cream), 7 days
  viable count With LAE: 3.7 · 10^4 cfu/mL
[18]; Example 12, oil-in-water emulsion with non-ionic surfactants (face cream), 14 days
  viable count With LAE: 1.9 · 10^3 cfu/mL
[18]; Example 12, oil-in-water emulsion with non-ionic surfactants (face cream), Initial
  viable count With LAE: 1.1 · 10^6 cfu/mL
[18]; Example 13, oil-in-water emulsion with non-ionic surfactants (sun protector, polysorbate 60), 7 days
  viable count With LAE: 8.4 · 10^3 cfu/mL
[18]; Example 13, oil-in-water emulsion with non-ionic surfactants (sun protector, polysorbate 60), 14 days
  viable count With LAE: 7.5 · 10^2 cfu/mL
[18]; Example 13, oil-in-water emulsion with non-ionic surfactants (sun protector, polysorbate 60), Initial
  viable count With LAE: 3.1 · 10^6 cfu/mL
[18]; Example 14, oil-in-water emulsion with non-ionic surfactants (sun protector, cetyl dimethicone copolyol), 7 days
  viable count With LAE: 9.4 · 10^2 cfu/mL
[18]; Example 14, oil-in-water emulsion with non-ionic surfactants (sun protector, cetyl dimethicone copolyol), 14 days
  viable count With LAE: 8.7 · 10^2 cfu/mL
[18]; Example 14, oil-in-water emulsion with non-ionic surfactants (sun protector, cetyl dimethicone copolyol), Initial
  viable count With LAE: 1.4 · 10^6 cfu/mL
[18]; Example 15, emulsion for hands care, 7 days
  viable count With LAE: 3.3 · 10^3 cfu/mL
[18]; Example 15, emulsion for hands care, 14 days
  viable count With LAE: <9.9 · 10^1 cfu/mL
[18]; Example 15, emulsion for hands care, Initial
  viable count With LAE: 4.4 · 10^6 cfu/mL
[19]
  M.I.C.: 128 ppm
[20]
  M.I.C.: 10 ppm
[21]
  M.I.C.: 32 ppm
[22]
  M.I.C.: 32 ppm
[23]
  M.I.C.: 16 ppm
[24]
  M.I.C.: 64 ppm
